Laboratory results reported in patent US20260015358A1, “BICYCLIC DERIVATIVES, COMPOSITIONS AND USES THEREOF” (Danatlas Pharmaceuticals Co., Ltd., priority 2023, published 2026).

Legend:
[1] = target: T1, WRN [UniPro: Q14191 (WRN_HUMAN), N500-C946] (Homo sapiens (Human), UniProt Q14191); assay: WRN ATPase assay (ADP-Glo); type: biochemical; details: WRN enzymatic activity assay
[2] = target: T1, WRN [UniPro: Q14191 (WRN_HUMAN), N500-C946]; assay: WRN unwinding assay (FORKF DNA, fluorescence); type: biochemical; details: Table 14

T1 sequence (Q14191 500-946): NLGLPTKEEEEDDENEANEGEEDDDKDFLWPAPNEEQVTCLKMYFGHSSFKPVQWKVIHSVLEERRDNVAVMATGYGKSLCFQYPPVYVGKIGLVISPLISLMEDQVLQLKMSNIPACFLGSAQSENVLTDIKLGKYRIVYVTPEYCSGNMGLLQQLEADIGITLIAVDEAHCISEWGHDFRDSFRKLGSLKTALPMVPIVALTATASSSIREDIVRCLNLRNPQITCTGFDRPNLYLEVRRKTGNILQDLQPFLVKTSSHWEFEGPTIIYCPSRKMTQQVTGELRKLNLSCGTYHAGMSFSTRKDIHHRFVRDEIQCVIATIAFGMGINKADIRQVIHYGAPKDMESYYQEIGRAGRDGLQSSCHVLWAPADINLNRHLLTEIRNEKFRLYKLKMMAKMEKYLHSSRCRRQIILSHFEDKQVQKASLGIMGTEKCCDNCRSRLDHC

Row | IC50 [1] [µM] | IC50 [2] [µM] | Compound
1 | < 0.1 | < 0.1 | CCc1c(N2CCN(C(=O)CNC(=O)c3cc(O)cc(F)c3)CC2)c(=O)n2nc(C3=CCOCC3)nc2n1CC(=O)Nc1ccc(C(F)(F)F)cc1Cl [Example 291, N-(2-(4-(4-(2-((2-Chloro-4-(trifluoromethyl)phenyl)amino)-2-oxoethyl)-2-(3,6-dihydro-2H-pyran-4-yl)-5-ethyl-7-oxo-4,7-dihydro-[1,2,4]triazolo[1,5-a]pyrimidin-6-yl)piperazin-1-yl)-2-oxoethyl)-3-fluoro-5-hydroxybenzamide]
2 | < 0.1 | < 0.1 | CCc1c(N2CCN(C(=O)CNC(=O)c3ccc(F)c(O)c3)CC2)c(=O)n2nc(C3=CCOCC3)nc2n1CC(=O)Nc1ccc(C(F)(F)F)cc1Cl [Example 292, N-(2-(4-(4-(2-((2-Chloro-4-(trifluoromethyl)phenyl)amino)-2-oxoethyl)-2-(3,6-dihydro-2H-pyran-4-yl)-5-ethyl-7-oxo-4,7-dihydro-[1,2,4]triazolo[1,5-a]pyrimidin-6-yl)piperazin-1-yl)-2-oxoethyl)-4-fluoro-3-hydroxybenzamide]
3 | < 0.1 | < 0.1 | CCc1c(N2CCN(C(=O)CNC(=O)c3cccc(O)c3F)CC2)c(=O)n2nc(C3=CCOCC3)nc2n1CC(=O)Nc1ccc(C(F)(F)F)cc1Cl [Example 293, N-(2-(4-(4-(2-((2-Chloro-4-(trifluoromethyl)phenyl)amino)-2-oxoethyl)-2-(3,6-dihydro-2H-pyran-4-yl)-5-ethyl-7-oxo-4,7-dihydro-[1,2,4]triazolo[1,5-a]pyrimidin-6-yl)piperazin-1-yl)-2-oxoethyl)-2-fluoro-3-hydroxybenzamide]
4 | 0.1 to 1 | > 1 | CCc1c(N2CCN(C(=O)CNC(=O)c3c(O)cc(C)oc3=O)CC2)c(=O)n2nc(C3=CCOCC3)nc2n1CC(=O)Nc1ccc(C(F)(F)F)cc1Cl [Example 295, N-(2-(4-(4-(2-((2-Chloro-4-(trifluoromethyl)phenyl)amino)-2-oxoethyl)-2-(3,6-dihydro-2H-pyran-4-yl)-5-ethyl-7-oxo-4,7-dihydro-[1,2,4]triazolo[1,5-a]pyrimidin-6-yl)piperazin-1-yl)-2-oxoethyl)-4-hydroxy-6-methyl-2-oxo-2H-pyran-3-carboxamide]
5 | 0.1 to 1 | 0.1 to 1 | CCc1c(N2CCN(C(=O)c3cc4ccnn4cn3)CC2)c(=O)n2nc(C3=CCOCC3)nc2n1CC(=O)Nc1ccc(C(F)(F)F)cc1Cl [Example 296, N-(2-Chloro-4-(trifluoromethyl)phenyl)-2-(2-(3,6-dihydro-2H-pyran-4-yl)-5-ethyl-7-oxo-6-(4-(pyrazolo[1,5-c]pyrimidine-5-carbonyl)piperazin-1-yl)-[1,2,4]triazolo[1,5-a]pyrimidin-4(7H)-yl)acetamide]
6 | < 0.1 | < 0.1 | CCc1c(N2CCN(C(=O)c3cnc4sc(Br)cc4c3O)CC2)c(=O)n2nc(C3=CCOCC3)nc2n1CC(=O)Nc1ccc(C(F)(F)F)cc1F [Example 297, 2-(6-(4-(2-Bromo-4-hydroxythieno[2,3-b]pyridine-5-carbonyl)piperazin-1-yl)-2-(3,6-dihydro-2H-pyran-4-yl)-5-ethyl-7-oxo-[1,2,4]triazolo[1,5-a]pyrimidin-4(7H)-yl)-N-(2-fluoro-4-(trifluoromethyl)phenyl)acetamide]
7 | < 0.1 | < 0.1 | CCc1c(N2CCN(C(=O)c3cnn4cccc4c3O)CC2)c(=O)n2nc(C3=CCOCC3)nc2n1CC(=O)Nc1sc(C)cc1C [Example 298, 2-(2-(3,6-Dihydro-2H-pyran-4-yl)-5-ethyl-6-(4-(4-hydroxypyrrolo[1,2-b]pyridazine-3-carbonyl)piperazin-1-yl)-7-oxo-[1,2,4]triazolo[1,5-a]pyrimidin-4(7H)-yl)-N-(3,5-dimethylthiophen-2-yl)acetamide]
8 | 0.1 to 1 | 0.1 to 1 | CCc1c(N2CCN(C(=O)c3[nH]cnc3F)CC2)c(=O)n2nc(C3=CCOCC3)nc2n1CC(=O)Nc1ccc(C(F)(F)F)cc1Cl [Example 299, N-(2-Chloro-4-(trifluoromethyl)phenyl)-2-(2-(3,6-dihydro-2H-pyran-4-yl)-5-ethyl-6-(4-(4-fluoro-1H-imidazole-5-carbonyl)piperazin-1-yl)-7-oxo-[1,2,4]triazolo[1,5-a]pyrimidin-4(7H)-yl)acetamide]
9 | 0.1 to 1 | 0.1 to 1 | CCc1c(N2CCN(C(=O)c3[nH]c4ccncc4c3F)CC2)c(=O)n2nc(C3=CCOCC3)nc2n1CC(=O)Nc1ccc(C(F)(F)F)cc1Cl [Example 300, N-(2-Chloro-4-(trifluoromethyl)phenyl)-2-(2-(3,6-dihydro-2H-pyran-4-yl)-5-ethyl-6-(4-(3-fluoro-1H-pyrrolo[3,2-c]pyridine-2-carbonyl)piperazin-1-yl)-7-oxo-[1,2,4]triazolo[1,5-a]pyrimidin-4(7H)-yl)acetamide]
10 | 0.1 to 1 | 0.1 to 1 | CCc1c(N2CCN(C(=O)CNC(=O)c3nc(C)co3)CC2)c(=O)n2nc(C3=CCOCC3)nc2n1CC(=O)Nc1ccc(C(F)(F)F)cc1Cl [Example 301, N-(2-(4-(4-(2-((2-Chloro-4-(trifluoromethyl)phenyl)amino)-2-oxoethyl)-2-(3,6-dihydro-2H-pyran-4-yl)-5-ethyl-7-oxo-4,7-dihydro-[1,2,4]triazolo[1,5-a]pyrimidin-6-yl)piperazin-1-yl)-2-oxoethyl)-4-methyloxazole-2-carboxamide]
11 | < 0.1 | < 0.1 | CCc1c(N2CCN(C(=O)c3cnn4ccc(C)c4c3O)CC2)c(=O)n2nc(C3=CCOCC3)nc2n1CC(=O)Nc1ccc(C(F)(F)F)cc1Cl [Example 303, N-(2-Chloro-4-(trifluoromethyl)phenyl)-2-(2-(3,6-dihydro-2H-pyran-4-yl)-5-ethyl-6-(4-(4-hydroxy-5-methylpyrrolo[1,2-b]pyridazine-3-carbonyl)piperazin-1-yl)-7-oxo-[1,2,4]triazolo[1,5-a]pyrimidin-4(7H)-yl)acetamide]
12 | < 0.1 | < 0.1 | CCc1c(N2CCN(C(=O)c3c(O)nn4ccccc34)CC2)c(=O)n2nc(C3=CCOCC3)nc2n1CC(=O)Nc1ccc(C(F)(F)F)cc1Cl [Example 304, N-(2-Chloro-4-(trifluoromethyl)phenyl)-2-(2-(3,6-dihydro-2H-pyran-4-yl)-5-ethyl-6-(4-(2-hydroxypyrazolo[1,5-a]pyridine-3-carbonyl)piperazin-1-yl)-7-oxo-[1,2,4]triazolo[1,5-a]pyrimidin-4(7H)-yl) acetamide]
13 | < 0.1 | < 0.1 | CCc1c(N2CCN(C(=O)c3nc4ccsc4cc3O)CC2)c(=O)n2nc(C3=CCOCC3)nc2n1CC(=O)Nc1ccc(C(F)(F)F)cc1Cl [Example 305, N-(2-Chloro-4-(trifluoromethyl)phenyl)-2-(2-(3,6-dihydro-2H-pyran-4-yl)-5-ethyl-6-(4-(6-hydroxythieno[3,2-b]pyridine-5-carbonyl)piperazin-1-yl)-7-oxo-[1,2,4]triazolo[1,5-a]pyrimidin-4(7H)-yl)acetamide]
14 | < 0.1 | < 0.1 | CCc1c(N2CCN(C(=O)c3nc4ccccc4cc3O)CC2)c(=O)n2nc(C3=CCOCC3)nc2n1CC(=O)Nc1ccc(C(F)(F)F)cc1Cl [Example 306, N-(2-Chloro-4-(trifluoromethyl)phenyl)-2-(2-(3,6-dihydro-2H-pyran-4-yl)-5-ethyl-6-(4-(3-hydroxyquinoline-2-carbonyl)piperazin-1-yl)-7-oxo-[1,2,4]triazolo[1,5-a]pyrimidin-4(7H)-yl)acetamide]
15 | 0.1 to 1 | < 0.1 | CCc1c(N2CCN(C(=O)c3nc4ccccc4cc3N)CC2)c(=O)n2nc(C3=CCOCC3)nc2n1CC(=O)Nc1ccc(C(F)(F)F)cc1Cl [Example 307, 2-(6-(4-(3-Aminoquinoline-2-carbonyl)piperazin-1-yl)-2-(3,6-dihydro-2H-pyran-4-yl)-5-ethyl-7-oxo-[1,2,4]triazolo[1,5-a]pyrimidin-4(7H)-yl)-N-(2-chloro-4 (trifluoromethyl)phenyl)acetamide]
16 | < 0.1 | < 0.1 | CCc1c(N2CCN(C(=O)c3cnc4sc(Cl)nc4c3O)CC2)c(=O)n2nc(C3=CCOCC3)nc2n1CC(=O)Nc1ccc(C(F)(F)F)cc1F [Example 308, 2-(6-(4-(2-Chloro-7-hydroxythiazolo[5,4-b]pyridine-6-carbonyl)piperazin-1-yl)-2-(3,6-dihydro-2H-pyran-4-yl)-5-ethyl-7-oxo-[1,2,4]triazolo[1,5-a]pyrimidin-4(7H)-yl)-N-(2-fluoro-4-(trifluoromethyl)phenyl)acetamide]
17 | < 0.1 | < 0.1 | CCc1c(N2CCN(C(=O)c3nnc(C(F)F)[nH]3)CC2)c(=O)n2nc(C3=CCOCC3)nc2n1CC(=O)Nc1ccc(C(F)(F)F)cc1F [Example 310, 2-(6-(4-(5-(Difluoromethyl)-4H-1,2,4-triazole-3-carbonyl)piperazin-1-yl)-2-(3,6-dihydro-2H-pyran-4-yl)-5-ethyl-7-oxo-[1,2,4]triazolo[1,5-a]pyrimidin-4(7H)-yl)-N-(2-fluoro-4-(trifluoromethyl)phenyl)acetamide]
18 | < 0.1 | < 0.1 | CCc1c(N2CCN(C(=O)c3nnc(C(F)(F)F)[nH]3)CC2)c(=O)n2nc(C3=CCOCC3)nc2n1CC(=O)Nc1ccc(C(F)(F)F)cc1F [Example 311, 2-(2-(3,6-Dihydro-2H-pyran-4-yl)-5-ethyl-7-oxo-6-(4-(5-(trifluoromethyl)-4H-1,2,4-triazole-3-carbonyl)piperazin-1-yl)-[1,2,4]triazolo[1,5-a]pyrimidin-4(7H)-yl)-N-(2-fluoro-4-(trifluoromethyl)phenyl)acetamide]
19 | 0.1 to 1 | 0.1 to 1 | CCc1c(N2CCN(C(=O)c3nnc(C)[nH]3)CC2)c(=O)n2nc(C3=CCOCC3)nc2n1CC(=O)Nc1ccc(C(F)(F)F)cc1F [Example 312, 2-(2-(3,6-Dihydro-2H-pyran-4-yl)-5-ethyl-6-(4-(5-methyl-4H-1,2,4-triazole-3-carbonyl)piperazin-1-yl)-7-oxo-[1,2,4]triazolo[1,5-a]pyrimidin-4(7H)-yl)-N-(2-fluoro-4-(trifluoromethyl)phenyl)acetamide]
